Measured values published in the SangsterLogP compilation.

| logP | Compound |
| --- | --- |
| 3.34 | CCCCC(CCCC)C(=O)O |
| 1.29 | CC(C)CCn1cnnn1 |
| 1.31 | CCCC(CC(C)=O)C(=O)O (configuration not stated) |
| 2.31 | O=C(O)CC1CCCCC1 |
| 2.3 | CCCCN(CCCC)C(=O)CCC(=O)O |
| 2.19 | CCC(CC)CC(=O)O |
| 2.44 | CCC=C(CCC)C(=O)O |
| 2.57 | CCCC(CCC)C(=O)O |
| 2.27 | C/C=C/C(=C\CC)C(=O)O |
| 2.38 | CC1(C(=O)O)CCCCC1 |
| 1.9 | CCC(C)(C)C(=O)O |
| 2.01 | CCCCCCCc1nn[nH]n1 |
